One compound from US11419826B2, “Surface-modified mesoporous silica nanoparticle for blood-brain barrier penetration,tumor targeting and cancer metastasis treatment, methods of production and uses thereof” (NANO TARGETING & THERAPY BIOPHARMA INC., priority 2019, dated 2022) can be followed below.

Data set [1] concerns U87-LUC glioma cells. The data set is described as follows: U87-LUC orthotopic glioma xenograft mouse model. Type of data set: in vivo. The settings on record: Dox 10 mg/kg i.v. every 4 days for 3 times. On the procedure:
U87-LUC glioma cells were cultured at 37° C. in a humidified 5% CO2 atmosphere in minimum essential median (MEM) supplemented with 10% fetal bovine serum and 1% penicillin/streptomycin (Invitrogen). Cells were harvested by trypsinization, washed once with phosphate-buffered saline (PBS), and re-suspended (1×10^5 cell/μL) in MEM for subsequent implantation into the striatum of mouse brains. Pathogen-free male NU/NU mice (5 to 7 weeks old) were purchased from BioLASCO (Taiwan). Mice were housed and maintained in a controlled environment and all procedures were performed in accordance with the experimental animal care guidelines of the Animal Committee of Chang Gung University. To implant U87-LUC tumor cells, animals were anesthetized with 2% isoflurane gas and immobilized on a stereotactic frame. […] The growth of the brain tumor was monitored by IVIS and MRI.
Dox is a well-known anti-cancer drug approved for treatment of multiple cancers. […] To evaluate the efficacy of Dox@MSN-PEG+TA anti-brain tumor in vivo, the U87-LUC brain cells were implanted orthotopically into nude mice to serve as the U87-LUC xenograft mouse model; U87-LUC cells can express luciferase for quantification of tumor cells in vivo. […] The distribution of MSN-PEG+TA and Dox@MSN-PEG+TA in brain tissue and tumor were assessed from the tumor sections from nanoparticle treated mice. […]

A short description of data set [2]: Pharmacokinetics and quantification of Dox accumulation in plasma and brain. Particulars: single i.v. dose, Dox 7.5 mg/kg; after 15 minutes.
Description: Healthy balb/c mice were single dose intravenously injected with Dox or Dox@NTT0_18 at 7.5 mg/kg. To determine the Dox concentration in plasma and brain, blood samples were taken at 15, 30, 60, 180, 360 and 1440 minutes after injection, and after the blood samples were taken, each animal was sacrificed and perfused with PBS to obtain the brain. Dox was extracted from the samples (plasma and brain respectively) for the determination of dox concentration with a spectrophotometer.
Mice received a single dose of Dox or Dox@NTT0_18 (MSN-PEG+TA-loaded Dox) through intravenous injection (all at Dox dose 7.5 mg/kg). To determine the Dox concentration in plasma and brain, blood samples were taken at 15, 30, 60, 180, 360 and 1440 minutes after injection and animals were sacrificed and perfused with PBS at each time point. Dox was extracted from plasma and brain and the Dox concentration was measured using a spectrophotometer. The concentration versus time curves of Dox in plasma with and without MSN-PEG+TA encapsulated was also established.

`COc1cccc2c1C(=O)c1c(O)c3c(c(O)c1C2=O)C[C@@](O)(C(=O)CO)C[C@@H]3O[C@H]1C[C@H](N)[C@H](O)[C@H](C)O1` [Dox, doxorubicin]: the “toxicity / body weight of treated mice” value in data set [1] was “causes death of the host”. The tumor size result in data set [1] (during the treatment period) is “shrunk during the treatment period”. Also, in data set [2], the “Dox concentration in plasma” value is “lower than 0.2 μg/mL”.
